# Source: PubChem BioAssay AID1963964 (Molecular Pharmacology Branch, DTP, NCI, 2024)
# System: 997726-040-R-J2-PDC tumor spheroids, viability
# Experiment: Anticancer human tumor 997726-040-R-J2-PDC patient-derived squamous cell lung carcinoma cell line growth inhibition [PI3K]
# Settings: spheroids with HUVEC and MSC; for IC50: curve of first compound; for viability, T/C: stronger effect = lower value
# In short: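 Tumor cells were combined with HUVEC and MSCs into spheroids, then dosed with PI3K-inhibitor combinations over half-log ranges capped near clinical Cmax or 10 microM.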
# [1] = second compound 0.0316 µM, first compound 0.000316 µM
# [2] = second compound 0.0316 µM, first compound 0.001 µM
# [3] = second compound 0.0316 µM, first compound 0.00316 µM
# [4] = second compound 0.0316 µM, first compound 0.01 µM
# [5] = second compound 0.0316 µM, first compound 0.0316 µM
# [6] = second compound 0.0316 µM, first compound 0.1 µM
# [7] = second compound 0.1 µM, first compound 0.000316 µM
# [8] = second compound 0.1 µM, first compound 0.001 µM
# [9] = second compound 0.1 µM, first compound 0.00316 µM
# [10] = second compound 0.1 µM, first compound 0.01 µM
# [11] = second compound 0.1 µM, first compound 0.0316 µM
# [12] = second compound 0.1 µM, first compound 0.1 µM
# [13] = second compound 0.316 µM, first compound 0.000316 µM
# [14] = second compound 0.316 µM, first compound 0.001 µM
# [15] = second compound 0.316 µM, first compound 0.00316 µM
# [16] = second compound 0.316 µM, first compound 0.01 µM
# [17] = second compound 0.316 µM, first compound 0.0316 µM
# [18] = second compound 0.316 µM, first compound 0.1 µM
# [19] = second compound 1 µM, first compound 0.000316 µM
# [20] = second compound 1 µM, first compound 0.001 µM
# [21] = second compound 1 µM, first compound 0.00316 µM
# [22] = second compound 1 µM, first compound 0.01 µM
# [23] = second compound 1 µM, first compound 0.0316 µM
# [24] = second compound 1 µM, first compound 0.1 µM
# [25] = second compound 3.16 µM, first compound 0.000316 µM
# [26] = second compound 3.16 µM, first compound 0.001 µM
# [27] = second compound 3.16 µM, first compound 0.00316 µM
# [28] = second compound 3.16 µM, first compound 0.01 µM
# [29] = second compound 3.16 µM, first compound 0.0316 µM
# [30] = second compound 3.16 µM, first compound 0.1 µM
# [31] = second compound 10 µM, first compound 0.000316 µM
# [32] = second compound 10 µM, first compound 0.001 µM
# [33] = second compound 10 µM, first compound 0.00316 µM
# [34] = second compound 10 µM, first compound 0.01 µM
# [35] = second compound 10 µM, first compound 0.0316 µM
# [36] = second compound 10 µM, first compound 0.1 µM
# [37] = second compound 0.0316 µM, first compound 0.316 µM
# [38] = second compound 0.0316 µM, first compound 1 µM
# [39] = second compound 0.0316 µM, first compound 3.16 µM
# [40] = second compound 0.0316 µM, first compound 10 µM
# [41] = second compound 0.1 µM, first compound 0.316 µM
# [42] = second compound 0.1 µM, first compound 1 µM
# [43] = second compound 0.1 µM, first compound 3.16 µM
# [44] = second compound 0.1 µM, first compound 10 µM
# [45] = second compound 0.316 µM, first compound 0.316 µM
# [46] = second compound 0.316 µM, first compound 1 µM
# [47] = second compound 0.316 µM, first compound 3.16 µM
# [48] = second compound 0.316 µM, first compound 10 µM
# [49] = second compound 1 µM, first compound 0.316 µM
# [50] = second compound 1 µM, first compound 1 µM
# [51] = second compound 1 µM, first compound 3.16 µM
# [52] = second compound 1 µM, first compound 10 µM
# [53] = second compound 3.16 µM, first compound 0.316 µM
# [54] = second compound 3.16 µM, first compound 1 µM
# [55] = second compound 3.16 µM, first compound 3.16 µM
# [56] = second compound 3.16 µM, first compound 10 µM
# [57] = second compound 10 µM, first compound 0.316 µM
# [58] = second compound 10 µM, first compound 1 µM
# [59] = second compound 10 µM, first compound 3.16 µM
# [60] = second compound 10 µM, first compound 10 µM
# 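Note: spheroids exposed to compounds for seven days before readout.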
smiles,measurement,setting,value
CC(=O)c1c(C)c2cnc(Nc3ccc(N4CCNCC4)cn3)nc2n(C2CCCC2)c1=O + Cc1nc(NC(=O)N2CCCC2C(N)=O)sc1-c1ccnc(C(C)(C)C(F)(F)F)c1,IC50,second compound 0.0316 µM,> 100 nM
same,IC50,second compound 0.1 µM,58.7 nM
same,IC50,second compound 0.316 µM,19.7 nM
same,IC50,second compound 1 µM,< 0.316 nM
same,IC50,second compound 3.16 µM,< 0.316 nM
same,IC50,second compound 10 µM,< 0.316 nM
same,"viability, T/C",[1],94.4%
same,"viability, T/C",[2],90.6%
same,"viability, T/C",[3],83.3%
same,"viability, T/C",[4],72.9%
same,"viability, T/C",[5],75.5%
same,"viability, T/C",[6],51.9%
same,"viability, T/C",[7],81.5%
same,"viability, T/C",[8],74.8%
same,"viability, T/C",[9],71.9%
same,"viability, T/C",[10],65.2%
same,"viability, T/C",[11],59.5%
same,"viability, T/C",[12],43.1%
same,"viability, T/C",[13],53.4%
same,"viability, T/C",[14],59%
same,"viability, T/C",[15],52.9%
same,"viability, T/C",[16],55.7%
same,"viability, T/C",[17],46.4%
same,"viability, T/C",[18],34.8%
same,"viability, T/C",[19],41.9%
same,"viability, T/C",[20],44.1%
same,"viability, T/C",[21],40.1%
same,"viability, T/C",[22],35.5%
same,"viability, T/C",[23],29.1%
same,"viability, T/C",[24],28.4%
same,"viability, T/C",[25],29.6%
same,"viability, T/C",[26],30.5%
same,"viability, T/C",[27],26.2%
same,"viability, T/C",[28],27.7%
same,"viability, T/C",[29],27.2%
same,"viability, T/C",[30],18.6%
same,"viability, T/C",[31],19.2%
same,"viability, T/C",[32],15.7%
same,"viability, T/C",[33],13.4%
same,"viability, T/C",[34],14.9%
same,"viability, T/C",[35],11.8%
same,"viability, T/C",[36],10.5%
CC(C)n1nc(-c2ccc3oc(N)nc3c2)c2c(N)ncnc21 + Cc1nc(NC(=O)N2CCCC2C(N)=O)sc1-c1ccnc(C(C)(C)C(F)(F)F)c1,IC50,second compound 0.0316 µM,17.1 nM
same,IC50,second compound 0.1 µM,10.7 nM
same,IC50,second compound 0.316 µM,3.53 nM
same,IC50,second compound 1 µM,< 0.316 nM
same,IC50,second compound 3.16 µM,< 0.316 nM
same,IC50,second compound 10 µM,< 0.316 nM
same,"viability, T/C",[1],80.4%
same,"viability, T/C",[2],80%
same,"viability, T/C",[3],66.5%
same,"viability, T/C",[4],62%
same,"viability, T/C",[5],38.8%
same,"viability, T/C",[6],7.7%
same,"viability, T/C",[7],84.9%
same,"viability, T/C",[8],71.1%
same,"viability, T/C",[9],64.4%
same,"viability, T/C",[10],52.8%
same,"viability, T/C",[11],33.6%
same,"viability, T/C",[12],7.57%
same,"viability, T/C",[13],62%
same,"viability, T/C",[14],61.8%
same,"viability, T/C",[15],51.1%
same,"viability, T/C",[16],36.7%
same,"viability, T/C",[17],28.6%
same,"viability, T/C",[18],6.37%
same,"viability, T/C",[19],43.7%
same,"viability, T/C",[20],38.9%
same,"viability, T/C",[21],38.3%
same,"viability, T/C",[22],32.7%
same,"viability, T/C",[23],21.3%
same,"viability, T/C",[24],3.77%
same,"viability, T/C",[25],32.4%
same,"viability, T/C",[26],31.8%
same,"viability, T/C",[27],27.9%
same,"viability, T/C",[28],24.5%
same,"viability, T/C",[29],9.73%
same,"viability, T/C",[30],2.15%
same,"viability, T/C",[31],21%
same,"viability, T/C",[32],11.3%
same,"viability, T/C",[33],10.4%
same,"viability, T/C",[34],8.32%
same,"viability, T/C",[35],4.53%
same,"viability, T/C",[36],1.59%
CC1(C)CCC(CN2CCN(c3ccc(C(=O)NS(=O)(=O)c4ccc(NCC5CCOCC5)c([N+](=O)[O-])c4)c(Oc4cnc5[nH]ccc5c4)c3)CC2)=C(c2ccc(Cl)cc2)C1 + Cc1nc(NC(=O)N2CCCC2C(N)=O)sc1-c1ccnc(C(C)(C)C(F)(F)F)c1,IC50,second compound 0.0316 µM,6130 nM
same,IC50,second compound 0.1 µM,5140 nM
same,IC50,second compound 0.316 µM,2490 nM
same,IC50,second compound 1 µM,< 31.6 nM
same,IC50,second compound 3.16 µM,< 31.6 nM
same,IC50,second compound 10 µM,< 31.6 nM
same,"viability, T/C",[5],84.2%
same,"viability, T/C",[6],90.8%
same,"viability, T/C",[37],86.1%
same,"viability, T/C",[38],91.3%
same,"viability, T/C",[39],76%
same,"viability, T/C",[40],30.9%
same,"viability, T/C",[11],73%
same,"viability, T/C",[12],71.8%
same,"viability, T/C",[41],74.9%
same,"viability, T/C",[42],75.5%
same,"viability, T/C",[43],67.4%
same,"viability, T/C",[44],25.7%
same,"viability, T/C",[17],58.3%
same,"viability, T/C",[18],58.6%
same,"viability, T/C",[45],56.2%
same,"viability, T/C",[46],53.6%
same,"viability, T/C",[47],49.5%
same,"viability, T/C",[48],25.6%
same,"viability, T/C",[23],48.9%
same,"viability, T/C",[24],41%
same,"viability, T/C",[49],39%
same,"viability, T/C",[50],39.5%
same,"viability, T/C",[51],39.2%
same,"viability, T/C",[52],11.1%
same,"viability, T/C",[29],25%
same,"viability, T/C",[30],28.1%
same,"viability, T/C",[53],27.2%
same,"viability, T/C",[54],26.2%
same,"viability, T/C",[55],24.5%
same,"viability, T/C",[56],8.65%
same,"viability, T/C",[35],14.8%
same,"viability, T/C",[36],10.8%
same,"viability, T/C",[57],7.16%
same,"viability, T/C",[58],6.93%
same,"viability, T/C",[59],5.25%
same,"viability, T/C",[60],2.97%
CCCS(=O)(=O)Nc1ccc(F)c(C(=O)c2c[nH]c3ncc(-c4ccc(Cl)cc4)cc23)c1F + Cc1nc(NC(=O)N2CCCC2C(N)=O)sc1-c1ccnc(C(C)(C)C(F)(F)F)c1,IC50,second compound 0.0316 µM,6890 nM
same,IC50,second compound 0.1 µM,6000 nM
same,IC50,second compound 0.316 µM,4660 nM
same,IC50,second compound 1 µM,31.6 nM
same,IC50,second compound 3.16 µM,< 31.6 nM
same,IC50,second compound 10 µM,< 31.6 nM
same,"viability, T/C",[5],88.6%
same,"viability, T/C",[6],93.5%
same,"viability, T/C",[37],103%
same,"viability, T/C",[38],122%
same,"viability, T/C",[39],103%
same,"viability, T/C",[40],25%
same,"viability, T/C",[11],76.4%
same,"viability, T/C",[12],80.5%
same,"viability, T/C",[41],80.5%
same,"viability, T/C",[42],95.7%
same,"viability, T/C",[43],88.4%
same,"viability, T/C",[44],22.6%
same,"viability, T/C",[17],55.6%
same,"viability, T/C",[18],62.3%
same,"viability, T/C",[45],69.8%
same,"viability, T/C",[46],63.7%
same,"viability, T/C",[47],66.9%
same,"viability, T/C",[48],23.3%
same,"viability, T/C",[23],41.9%
same,"viability, T/C",[24],40.5%
same,"viability, T/C",[49],48.3%
same,"viability, T/C",[50],57.1%
same,"viability, T/C",[51],52%
same,"viability, T/C",[52],18.1%
same,"viability, T/C",[29],29.2%
same,"viability, T/C",[30],31.4%
same,"viability, T/C",[53],31.7%
same,"viability, T/C",[54],34.7%
same,"viability, T/C",[55],31.1%
same,"viability, T/C",[56],17.9%
same,"viability, T/C",[35],16.4%
same,"viability, T/C",[36],16.9%
same,"viability, T/C",[57],13.8%
same,"viability, T/C",[58],17.1%
same,"viability, T/C",[59],11.9%
same,"viability, T/C",[60],7.69%
